Measured values reported in the NIST ThermoML archive (doi:10.1021/je2008704).

Settings: Liquid, Ebulliometric method (Recirculating still)

OCCO [1,2-ethanediol]
Settings | vapor or sublimation pressure [kPa]
412.81 K | 13.33
422.78 K | 20
430.26 K | 26.66
436.37 K | 33.33
441.5 K | 40
445.96 K | 46.66
449.93 K | 53.33
453.52 K | 60
456.78 K | 66.66
459.79 K | 73.33
462.58 K | 79.99
465.18 K | 86.66
467.62 K | 93.32
469.48 K | 98.66
470.02 K | 100.4

CCO [ethanol]
Settings | vapor or sublimation pressure [kPa]
329.67 K | 40
336.06 K | 53.33
341.23 K | 66.66
345.59 K | 79.99
349.38 K | 93.32
351.03 K | 99.74

O [water]
Settings | vapor or sublimation pressure [kPa]
349.09 K | 40
356.17 K | 53.33
361.87 K | 66.66
366.69 K | 79.99
370.88 K | 93.32
372.76 K | 100
